The test system of series [1] is HIV-1 pseudovirus pseudotyped with HXB2 Env. As to the kind of experiment: microbe, parasite or virus in culture. Type of series: cell-based. The settings on record: single cycle assay, TZM-bl cells infected with HIV-1 pseudovirus pseudotyped with HXB2 Env.
A further series has as its system TZM-bl cells. Briefly: Cytotoxicity in TZM-bl cells (XTT). Type of series: cell-based. The settings on record: XTT, 3 days. As to the method: The cytotoxicity of test compounds in TZM-bl cells was also measured by the XTT method described previously^7. […] The soluble intracellular formazan was quantitated colorimetrically at 450 nm 4 h later. The percent of cytotoxicity and the CC50 values were calculated as above. (See Table 4)

Setting [2] is: Human immunodeficiency virus 1, HXB2, TZM-bl.
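Wherever IC50 is given: endpoint is IC50 for inhibition of pseudovirus infection of TZM-bl cells.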

`Cc1ccc(-c2ccc(C(=O)NC(c3nc(C)c(CO)[nH]3)C3CCCCN3)[nH]2)cc1F` (single isomer, unassigned) [Compound 38]: the IC50 (in general, the midpoint of a concentration-inhibition curve) in series [1] was determined as 17 ± 0.2 µM. For the same molecule, it took 34 ± 0.2 µM to reach half-maximal cytotoxicity in the series on TZM-bl cells (CC50).

As for `Cc1ccc(-c2ccc(C(=O)NC(CN)c3nc(C)c(CO)s3)[nH]2)cc1F` (single isomer, unassigned) [Compound 44], the concentration for half-maximal inhibition (IC50) in series [1] worked out at 1.1 ± 0.1 µM. The CC50 (commonly the concentration that lowers cell viability or growth by half) in the series on TZM-bl cells is at least 34 µM.

On to `Cc1nc(C(CNC(=N)N)NC(=O)c2ccc(-c3ccc(Cl)cc3)[nH]2)sc1CO` (single isomer, unassigned) [Compound 46], for which, in series [1], the IC50 is at least 20 µM. Moreover, the CC50 in the series on TZM-bl cells is over 37 µM.

In series [1], `Cc1nc(C(CNC(=N)N)NC(=O)c2ccc(-c3ccc(Cl)c(F)c3)[nH]2)sc1CO` (single isomer, unassigned) [Compound 47] yielded an IC50 of at least 20 µM. The CC50 in the series with TZM-bl cells was over 36 µM.

For the molecule `Cc1ccc(-c2ccc(C(=O)NC(CNC(=N)N)c3nc(C)c(CO)s3)[nH]2)cc1F` (single isomer, unassigned) [Compound 50], the IC50 in series [1] was over 20 µM. Also, in the series on TZM-bl cells, the CC50 is over 37 µM.

In series [1], `CNCC(NC(=O)c1ccc(-c2ccc(Cl)c(F)c2)[nH]1)c1nc(C)c(CO)s1` (single isomer, unassigned) [Compound 57] showed an IC50 of about 0.6 µM. The CC50 with TZM-bl cells was about 20 µM.

`Cc1ccc(-c2ccc(C(=O)NC(CN(C)C)c3nc(C)c(CO)s3)[nH]2)cc1F` (single isomer, unassigned) [Compound 65] showed an IC50 in series [1] of 6.3 ± 1.8 µM. The CC50 with TZM-bl cells is over 40 µM.

In series [1], `Cc1nc(C(CN(C)C)NC(=O)c2ccc(-c3ccc(Cl)c(F)c3)[nH]2)sc1CO` (single isomer, unassigned) [Compound 68] had an IC50 of 7.2 ± 3 µM. This molecule also showed a CC50 in the series with TZM-bl cells of about 29 µM.

`Cc1cc(-c2ccc(Cl)cc2)[nH]c1C(=O)NC(CN)c1nc(C)c(CO)s1` (single isomer, unassigned) [Compound 70] showed an IC50 in series [1] of 1.1 ± 0.3 µM. The same molecule displayed a CC50 with TZM-bl cells of 26.4 ± 0.7 µM.

Consider `Cc1ccc(-c2ccc(C(=O)NC(CCN(C)C)c3nc(C)c(CO)s3)[nH]2)cc1F` (single isomer, unassigned) [Compound 73], for which, in series [1], the IC50 was 6.6 ± 0.2 µM. In the series with TZM-bl cells, this molecule had a CC50 of 37.1 ± 5.7 µM.

`Cc1nc(C(CCN(C)C)NC(=O)c2ccc(-c3ccc(Cl)c(F)c3)[nH]2)sc1CO` (single isomer, unassigned) [Compound 75] returned an IC50 in series [1] of 1.5 ± 0.3 µM. The molecule also showed a CC50 with TZM-bl cells of 21.3 ± 0.6 µM.

In the case of `Cc1nc(C(CCN(C)C)NC(=O)c2ccc(-c3ccc(Cl)cc3)[nH]2)sc1CO` (single isomer, unassigned) [Compound 77], it took 10.4 ± 2 µM to reach half-maximal inhibition in series [1] (IC50). In the series on TZM-bl cells, this molecule registered a CC50 of 40.2 ± 3 µM.

As to `CNCCC(NC(=O)c1ccc(-c2ccc(C)c(F)c2)[nH]1)c1nc(C)c(CO)s1` (single isomer, unassigned) [Compound 79], the IC50 in series [1] amounted to 1.6 ± 0.4 µM. For the same molecule, half-maximal cytotoxicity in the series with TZM-bl cells (CC50) was put at 38.9 ± 2.1 µM.

In series [1], `CNCCC(NC(=O)c1ccc(-c2ccc(Cl)c(F)c2)[nH]1)c1nc(C)c(CO)s1` (single isomer, unassigned) [Compound 81] had a 50% inhibitory concentration (IC50) of 1.5 ± 0.4 µM. In the series with TZM-bl cells, this molecule yielded a CC50 of 22 ± 0.6 µM.

In turn, `CNCCC(NC(=O)c1ccc(-c2ccc(Cl)cc2)[nH]1)c1nc(C)c(CO)s1` (single isomer, unassigned) [Compound 83] came in with an IC50 in series [1] of 1.7 ± 0.2 µM. In the series with TZM-bl cells, this molecule displayed a CC50 of 23 ± 0.6 µM.

Take `Cc1ccc(-c2ccc(C(=O)NC(CCN)c3nc(C)c(CO)s3)[nH]2)cc1F` (single isomer, unassigned) [Compound 85]: half-maximal inhibition in series [1] (IC50) required 4.2 ± 1.7 µM. In the series on TZM-bl cells, this molecule gave a CC50 of 43.8 ± 1.6 µM.

In series [1], `Cc1nc(C(CCN)NC(=O)c2ccc(-c3ccc(Cl)c(F)c3)[nH]2)sc1CO` (single isomer, unassigned) [Compound 87] gave an IC50 of 6.6 ± 2 µM. The same molecule returned a CC50 in the series on TZM-bl cells of 35 ± 3 µM.

Consider `Cc1nc(C(CCN)NC(=O)c2ccc(-c3ccc(Cl)cc3)[nH]2)sc1CO` (single isomer, unassigned) [Compound 89], for which half-maximal inhibition in series [1] (IC50) required 4 ± 0.3 µM. The CC50 with TZM-bl cells came to 41 ± 1 µM.

In series [1] (setting [2]), `Cc1nc(C(CN)NC(=O)c2ccc(-c3ccc(Cl)cc3)n2C)sc1CO` (single isomer, unassigned) [Compound 91] gave an IC50 of 26 ± 1.4 µM. The molecule further came in with a CC50 with TZM-bl cells of 35.8 ± 0.3 µM.

For the molecule `Cc1nc(C(CN)NC(=O)c2ccc(-c3ccc(Cl)cc3)n2C)sc1CO` (single isomer, unassigned) [Compound 92], in series [1], the midpoint of inhibition, the IC50, lay at 25.8 ± 1.1 µM. Half-maximal cytotoxicity in the series with TZM-bl cells (CC50) was put at 36.7 ± 0.4 µM.

Take `Cc1nc(C(CN)NC(=O)c2ncc(-c3ccc(Cl)cc3)[nH]2)sc1CO` (single isomer, unassigned) [Compound 96]: in series [1], the IC50 is about 51 µM. Besides, the cytotoxic concentration (CC50) with TZM-bl cells is over 51 µM.

For the molecule `NCC(NC(=O)c1ccc(-c2ccc(Cl)c(F)c2)[nH]1)c1ncc(CO)s1` (single isomer, unassigned) [Compound 102], half-maximal inhibition in series [1] (IC50) required 0.77 ± 0.04 µM. Also, the CC50 in the series with TZM-bl cells worked out at 31.8 ± 0.4 µM.

For `NCC(NC(=O)c1ccc(-c2ccc(Cl)cc2)[nH]1)c1ncc(CO)s1` (single isomer, unassigned) [Compound 103], half-maximal inhibition in series [1] (setting [2]) (IC50) was put at 0.75 ± 0.2 µM. This molecule also registered a CC50 in the series on TZM-bl cells of 37.1 ± 0.3 µM.

In series [1], `COc1cc(C(=O)NC(CN)c2nc(C)c(CO)s2)[nH]c1-c1ccc(Cl)cc1` (single isomer, unassigned) [Compound 106] came in with a half-inhibitory concentration (IC50) of 12.4 ± 2.5 µM. The CC50 in the series on TZM-bl cells turned out to be 22.2 ± 2.5 µM.

In series [1] (setting [2]), `Cc1nc(C(CNC(C)C)NC(=O)c2ccc(-c3ccc(Cl)cc3)[nH]2)sc1CO` (single isomer, unassigned) [Compound 107] came in with an IC50 of 4.2 ± 0.3 µM. Besides, the midpoint of cytotoxicity in the series with TZM-bl cells, the CC50, lay at 28.5 ± 3.5 µM.

Turning to `Cc1nc(C(CN)NC(=O)c2ccc(-c3ccc(Cl)cc3)[nH]2)sc1CN` (single isomer, unassigned) [Compound 108], the IC50 in series [1] (setting [2]) was found to be 12.1 ± 0.5 µM. In the series on TZM-bl cells, this molecule yielded a CC50 of 14.6 ± 0.2 µM.

`Cc1nc(C(NC(=O)c2ccc(-c3ccc(Cl)cc3)[nH]2)C(C)(C)N)sc1CO` (single isomer, unassigned) [Compound 110] yielded an IC50 in series [1] of 1.1 ± 0.2 µM. This molecule registered a CC50 with TZM-bl cells of 20.6 ± 1.2 µM.

As to `Cc1nc(C(NC(=O)c2ccc(-c3ccc(Cl)c(F)c3)[nH]2)C(C)(C)N)sc1CO` (single isomer, unassigned) [Compound 112], in series [1], the IC50 was determined as 0.27 ± 0.04 µM. For the same molecule, in the series with TZM-bl cells, the CC50 was determined as 13.9 ± 0.7 µM.

In series [1], `Cc1ccc(-c2ccc(C(=O)NC(c3nc(C)c(CO)s3)C(C)(C)N)[nH]2)cc1F` (single isomer, unassigned) [Compound 114] registered an IC50 of 0.34 ± 0.02 µM. Besides, the half-maximal cytotoxic concentration (CC50) in the series with TZM-bl cells amounted to 17.8 ± 0.3 µM.

`CNCC(NC(=O)c1ccc(-c2ccc(Cl)c(F)c2)[nH]1)c1ncc(CO)s1` (single isomer, unassigned) [Compound 115] yielded an IC50 in series [1] (setting [2]) of 0.95 ± 0.03 µM. Also, the CC50 with TZM-bl cells was 17.3 ± 0.5 µM.

As to `CNCC(NC(=O)c1ccc(-c2ccc(Cl)c(F)c2)[nH]1)c1ncc(CO)s1` (single isomer, unassigned) [Compound 116], in series [1], the midpoint of inhibition, the IC50, lay at 1.4 ± 0.05 µM. For the same molecule, the midpoint of cytotoxicity in the series on TZM-bl cells, the CC50, lay at 17.4 ± 0.4 µM.

In turn, `CNCC(NC(=O)c1ccc(-c2ccc(C)c(F)c2)[nH]1)c1ncc(CO)s1` (single isomer, unassigned) [Compound 117] had an IC50 in series [1] (setting [2]) of 1 ± 0.2 µM. Besides, the CC50 in the series on TZM-bl cells is 27.4 ± 0.8 µM.

For `CC(C)(N)C(NC(=O)c1ccc(-c2ccc(Cl)c(F)c2)[nH]1)c1ncc(CO)s1` (single isomer, unassigned) [Compound 124], in series [1], inhibition was half-maximal at 0.46 ± 0.01 µM (IC50). In the series on TZM-bl cells, this molecule came in with a CC50 of 16.3 ± 0.6 µM.

In series [1], `Cc1ccc(-c2ccc(C(=O)NC(c3ncc(CO)s3)C(C)(C)N)[nH]2)cc1F` (single isomer, unassigned) [Compound 126] yielded an IC50 of 0.54 ± 0.01 µM. In addition, in the series on TZM-bl cells, the CC50 worked out at 18.1 ± 0.7 µM.
